From patent publication US7569729B2, “Stable atomoxetine hydrochloride, a process for the preparation thereof, and an analytical control of its stability” (Teva Pharmaceutical Fine Chemicals S.R.L., priority 2005, dated 2009)
Where “and” joins values, the source holds several entries; their conditions need not be identical. Equal entries are not always repeated. Structures can show the parent of a compound that is named as a salt.

What was measured:
[1] = Determination of pH of Atomoxetine Hydrochloride samples in aqueous solution; type: physicochemical; settings: for pH of 2% (w/V) aqueous solution / aqueous pH test results: Hydrochloride; for pH (2% in H2O): wet samples after filtration from crystallization medium; for aqueous pH test results: samples of the 40° C. stability test
Description: The present invention provides a method for analyzing Atomoxetine Hydrochloride stability, comprising determining the pH of a sample of Atomoxetine Hydrochloride in aqueous solution. The process comprises dissolving Atomoxetine Hydrochloride in water at a temperature of about 20° C. to about 30° C. to obtain a solution and measuring the pH. Preferably, the dissolution of Atomoxetine Hydrochloride is accelerated by using a sonication. Preferably, the pH is measured with a glass electrode.
A 2 g sample of Atomoxetine Hydrochloride is dissolved in 100 ml of deionized water at temperature between about 20° C. and about 30° C. with sonication if required to obtain a complete solution. The pH is measured with a glass electrode at temperature of between about 20° C. and about 30° C.

[2] = Stressed thermal stability test (70° C. for 58 hours), impurities by HPLC; type: physicochemical
Description: However, the presence of free HCl in Atomoxetine Hydrochloride, which is easily detected by a pH test of a solution of Atomoxetine Hydrochloride in water, results in significant degradation of the Atomoxetine Hydrochloride, as described below.

[3] = Determination of pH of Atomoxetine Hydrochloride samples in aqueous solution; type: physicochemical; settings: Example 2, after first water slurry and wash, 200 mg in 10 ml water
[4] = Drying wet Atomoxetine Hydrochloride in a vacuum oven at 70° C., impurities by HPLC; type: physicochemical; settings: HPLC results, weight percent
Description: These experimental results are in agreement with the previously described stability data.

[5] = Stability test (40° C., five days), impurities by HPLC; type: physicochemical
Description: At lower temperatures, e.g., 40° C., the stability of Atomoxetine Hydrochloride samples, having a water solution pH test of less than 4 are compromised, while Atomoxetine Hydrochloride samples, having a water solution pH test of greater than 4, are stable.

[6] = Stability test (40° C., 75% RH), impurities by HPLC; type: physicochemical
[7] = Contact of dry Atomoxetine Hydrochloride with HCl gas flow at room temperature, impurities by HPLC
[8] = End of test time, Hydrochloride
[9] = After drying in vacuum oven at 70° C.
[10] = Before contact with HCl gas flow
[11] = After contact with HCl gas flow, room temperature

SMILES | pH of 2% (w/V) aqueous solution [1] | Impurity (a) (HPLC A %) [2, 8] | Impurity (b) (HPLC A %) [2, 8] | Impurity (c) (HPLC A %) [2, 8] | Impurity (a) (HPLC A %) ([2]; Time zero) | Impurity (b) (HPLC A %) ([2]; Time zero) | Impurity (c) (HPLC A %) ([2]; Time zero) | aqueous pH test results [1] | Impurity (a) (HPLC A %) [5, 8] | Impurity (b) (HPLC A %) [5, 8] | Impurity (c) (HPLC A %) [5, 8] | Impurity (b) (HPLC A %) ([5]; Time zero) | Impurity (a) (HPLC A %) ([5]; Time zero, Hydrochloride) | Impurity (c) (HPLC A %) ([5]; Time zero, Hydrochloride) | further results
CNCCC(Oc1ccccc1C)c1ccccc1 (single isomer, unassigned) [Sample 1, Atomoxetine Hydrochloride] | 2.4 | 10.5% HPLC A % | 14.2% HPLC A % | 26.2% HPLC A % | not detected | not detected | not detected |  |  |  |  |  |  |  | 
CNCCC(Oc1ccccc1C)c1ccccc1 (single isomer, unassigned) [Sample 2, Atomoxetine Hydrochloride] | 5.8 | not detected | not detected | not detected | not detected | not detected | not detected |  |  |  |  |  |  |  | 
CNCCC(Oc1ccccc1C)c1ccccc1 (single isomer, unassigned) [Sample 3, Atomoxetine Hydrochloride] | 6.0 | not detected | not detected | not detected | not detected | not detected | not detected |  |  |  |  |  |  |  | 
CNCCC(Oc1ccccc1C)c1ccccc1 (single isomer, unassigned) [Sample 4, Atomoxetine Hydrochloride] | 5.9 | not detected | not detected | not detected | not detected | not detected | not detected |  |  |  |  |  |  |  | 
CNCC[C@@H](Oc1ccccc1C)c1ccccc1 [Atomoxetine Hydrochloride, (R)(−)-n-methyl-3-(2-methylphenoxy)-3-phenylpropylamine] |  |  |  |  |  |  |  |  |  |  |  |  |  |  | pH ([1]; Example 1, wet solids of two separate preparations, 2 g in 100 ml water): 2.39 and 2.40; pH ([1]; Example 2, after second water slurry and wash, wet, 2 g in 100 ml water): 5.9; pH ([1]; Example 3, after acetone washing and drying, about 2 percent w/V in water): 4.6; pH [3]: 4.4
CNCCC(Oc1ccccc1C)c1ccccc1 (stereo not shown) [Sample 5, Atomoxetine Hydrochloride] |  |  |  |  |  |  |  |  |  |  |  |  |  |  | pH (2% in H2O) [1]: 2.4; Impurity (a) [4, 9]: 0.31%; Impurity (b) [4, 9]: 0.04%; Impurity (c) [4, 9]: 0.12%; Impurity (a) ([4]; Before drying): not detected; Impurity (b) ([4]; Before drying): not detected; Impurity (c) ([4]; Before drying): not detected
CNCCC(Oc1ccccc1C)c1ccccc1 (stereo not shown) [Sample 6, Atomoxetine Hydrochloride] |  |  |  |  |  |  |  |  |  |  |  |  |  |  | pH (2% in H2O) [1]: 2.4
CNCCC(Oc1ccccc1C)c1ccccc1 (stereo not shown) [Sample 7, Atomoxetine Hydrochloride] |  |  |  |  |  |  |  | 2.4 | 0.633% HPLC A % | 0.0482% HPLC A % | 0.689% HPLC A % | not detected | 0.014% HPLC A % | 0.018% HPLC A % | 
CNCCC(Oc1ccccc1C)c1ccccc1 (stereo not shown) [Sample 8, Atomoxetine Hydrochloride] |  |  |  |  |  |  |  | 4.4 | not detected | not detected | not detected | not detected | not detected | not detected | 
CNCCC(Oc1ccccc1C)c1ccccc1 (stereo not shown) [Sample 9, Atomoxetine Hydrochloride] |  |  |  |  |  |  |  | 4.8 | not detected | not detected | not detected | not detected | not detected | not detected | 
CNCCC(Oc1ccccc1C)c1ccccc1 (stereo not shown) [Sample 10, Atomoxetine Hydrochloride] |  |  |  |  |  |  |  | 6.1 | not detected | not detected | not detected | not detected | not detected | not detected | 
CNCCC(Oc1ccccc1C)c1ccccc1 (stereo not shown) [Sample 11, Atomoxetine Hydrochloride] |  |  |  |  |  |  |  |  |  |  |  |  |  |  | Impurity (a) (HPLC A %) ([6]; 1 month): 0.02 HPLC A %; Impurity (b) (HPLC A %) ([6]; 1 month): 0.006 HPLC A %; Impurity (c) (HPLC A %) ([6]; 1 month): not detected; Impurity (a) (HPLC A %) ([6]; 2 months): 0.02 HPLC A %; Impurity (b) (HPLC A %) ([6]; 2 months): 0.007 HPLC A %; Impurity (c) (HPLC A %) ([6]; 2 months): not detected; Impurity (a) (HPLC A %) ([6]; 3 months): 0.02 HPLC A %; Impurity (b) (HPLC A %) ([6]; 3 months): 0.003 HPLC A %; Impurity (c) (HPLC A %) ([6]; 3 months): not detected; Impurity (a) (HPLC A %) ([6]; 6 month): 0.01 HPLC A %; Impurity (b) (HPLC A %) ([6]; 6 month): not detected; Impurity (c) (HPLC A %) ([6]; 6 month): not detected; Impurity (a) (HPLC A %) ([6]; Time zero): 0.01 HPLC A %; Impurity (b) (HPLC A %) ([6]; Time zero): not detected; Impurity (c) (HPLC A %) ([6]; Time zero): not detected
CNCCC(Oc1ccccc1C)c1ccccc1 (stereo not shown) [Sample 12, Atomoxetine Hydrochloride] |  |  |  |  |  |  |  |  |  |  |  |  |  |  | aqueous pH test result [1, 10]: 6.1; aqueous pH test result ([1]; after contact with HCl gas flow): 2.8; Impurity (a) [7, 11]: 0.10% HPLC A %; Impurity (b) [7, 11]: 0.032% HPLC A %; Impurity (c) [7, 11]: 1.54% HPLC A %; Impurity (a) [7, 10]: not detected; Impurity (b) [7, 10]: not detected; Impurity (c) [7, 10]: not detected
